The nature of the series: Plasma concentrations of paclitaxel as a function of dose after intraperitoneal administration to dogs. The settings on record: dog. As for the experimental part:
(30%) microspheres were administered intraperitoneally to dogs at doses of 90, 120, 150, 180 and 210 mg/kg; paclitaxel was administered at doses of 9 mg/kg and 12 mg/kg to other dogs. Each dose group comprised one female dog. Plasma samples were taken from each dog at various time points. Samples were analyzed using a LC/MS/MS method. Results are depicted in FIG. 10.
Following administration of 90 and 120 mg/kg doses of […] (30%) microspheres, plasma samples were collected through 63 days. At doses of 150 and 180 mg/kg, the last sample was obtained at 35 days. The last sampling time for the 210 mg/kg dose was 28 days.

Bounds are passed on as bounds.

For the compound `CC(=O)O[C@H]1C(=O)[C@@]2(C)[C@H]([C@H](OC(=O)c3ccccc3)[C@]3(O)C[C@H](OC(=O)[C@H](O)[C@@H](NC(=O)c4ccccc4)c4ccccc4)C(C)=C1C3(C)C)[C@]1(OC(C)=O)CO[C@@H]1C[C@@H]2O` [paclitaxel], the toxicity outcome (in vivo, ip, 12 mg/kg) is “euthanized before the completion of the study due to toxicity”. Also, under “intraperitoneal, 9 mg/kg”, the “decline of plasma paclitaxel concentration” value is “declined in a biphasic manner”, the “time at which maximum plasma paclitaxel concentration was reached” value was 0.5 days and the “time post dose beyond which plasma paclitaxel could not be detected” value was no more than 7 days.

(Values after patent US20020041897A1, “Compositions for sustained release of antineoplastic taxanes, and methods of making and using the same” (priority 2000, published 2002).)
